Converted amounts (≈) assume the structure as drawn. Like-named read-outs stand apart in the source and are kept apart here.
Experiments:
[1] = test system: pDNA-PK (Cellular mechanistic DNA-PK, HCT-116); experiment: pDNA-PK cellular assay; format: cell-based, human; details: HCT-116, 10 μM bleomycin
Protocol: HCT116 cells are cultured in MEM alpha medium with 10% fetal calf serum and 2 mM glutamine at 37° C. and 10% CO2. The cells were detached from the bottom of the culture vessels using trypsin/EDTA, centrifuged in centrifuge tubes, taken up in fresh medium and the cell density was determined. 100,000 cells were seeded in 1 ml of culture medium per well of a 24-well cell culture plate and cultured overnight. The next day, 10 μM bleomycin (DNA intercalator and DNA double-strand breaker inducer) and the test substances in fresh culture medium were added to the cells and cultured for a further six hours. Cell lysis was then performed and the cell lysates were spotted on a 96-well ELISA plate (Sigma-Aldrich WH0005591M2: total DNA-PK, Abcam ab18192 or Epitomics EM09912: phospho-serine 2056 DNA-PK), which was blocked and coated with DNA-PK specific antibody, and incubated at 4° C. overnight. Subsequently, the 96-well ELISA plates were treated with a detection antibody (Abcam ab79444: total DNA-PK) and a streptavidin-HRP conjugate. The development of the enzymatic reaction was carried out using a chemiluminescent reagent, the chemiluminescence was measured using the Mithras LB940. The signals with the phospho-DNA-PK specific antibody were normalized to the signal with the antibody against the whole protein DNA-PKc. […] The DMSO control was used as blank.

[2] = Microsomal stability (intrinsic clearance), human; format: in vitro ADME; set-up: microsomal CLint: dose or concentration left out as unconfirmed; details: for microsomal CLint: liver microsomes, pH 7.4
From the text: (§1) A microsomal stability assay is used to measure in vitro clearance (Clint). The assay involves measuring the rate of disappearance of a compound due to its intrinsic attitude to be metabolized (“intrinsic” meaning that the disappearance is not affected by other properties like permeability, binding etc. that play a role when quantifying in vivo clearance). The microsomal stability (intrinsic clearance, Clint) and, thus, metabolic stability is generally given as μl/min/mg protein. It can be visualized as the volume of solution that 1 mg of microsomes is able to clear of the compound in one minute.
(§2) A Tecan Genesis workstation (RSP 150/8) was used for to perform the microsomal incubations. Analysis was carried out using a Waters ACQUITY UPLC system coupled to an ABSciex API3000 mass spectrometer. Data analysis was performed using Assay Explorer (Symyx).
(§3) • Potassium phosphate buffer: 0.05 M potassium phosphate buffer pH 7.4 containing 1 mM MgCl2 • NADPH (nicotinamide adenine dinucleotide phosphate): 22.5 mg NADPH-Na4 in 1.8 ml potassium phosphate buffer • Acetonitrile: 50 Vol % acetonitrile (1 volume acetonitrile, 1 volume water) • DMSO: 20 Vol % DMSO in water • Stock solution of 20 mg/ml human or mouse liver microsomes (protein)/ml in phosphate buffer • Stock solution of 10 mM compound in 100% DMSO
(§4) Dilution of test compounds was done in 2 steps starting from a 10 mM stock solution of the respective compound in 100% DMSO. First 4 μl stock solution was added to 196 μl of 20 Vol % DMSO. In a second step, 10 μl of the first dilution were added to 1590 μl potassium phosphate buffer to achieve a final concentration of 1.25 μM in the final compound dilution. Thus, the amount of organic solvent in the assay was kept to a minimum (<1%).
(§5) The human or mouse liver microsome (protein) solution to be used in the assay was prepared by mixing 750 μl stock solution (20 mg/ml) and 2250 μl potassium phosphate buffer to a final concentration of 5 mg/ml.
(§6) Incubation was carried out on a 96 deep well incubation plate. […]

[3] = Microsomal stability (intrinsic clearance), mouse; format: in vitro ADME; set-up: microsomal CLint: dose or concentration left out as unconfirmed; details: for CLint (mouse): mouse microsomes
From the text: as §1, §2, §3, §4, §5, §6

[4] = Solubility in biological buffer solutions; format: physicochemical
Protocol: Levels of dissolved compound/form were analysed by HPLC, with the following conditions: • Column: Chromolith RP-18e 100-3 mm • Solvent A: water/formic acid (999:1; v/v) • Solvent B: acetonitrile/formic acid (999:1; v/v) • Injection volume: 5 μL • Column temperature: 37° C. • HPLC-Gradient: […]

[5] = FaSSIF, pH 6.5, fassif, FaSSiF, pH 6.5, read-out: Solubility FaSSiF, pH 6.5
[6] = FeSSIF, pH 5, fessif, FeSSiF, pH 5.0, read-out: Solubility FeSSiF, pH 5.0
[7] = PBS, pH 7.4, aqueous buffer, PBS, pH 7.4, read-out: Solubility PBS, pH 7.4

## COc1cc2ncc3c(c2cc1-c1cn(C)nc1C)n(-c1c(F)cncc1OC)c(=O)n3C (single isomer, unassigned) [Compound 2, 8-(1,3-Dimethyl-1H-pyrazol-4-yl)-1-(Ra)-(3-fluoro-5-methoxy-pyridin-4-yl)-7-methoxy-3-methyl-1,3-dihydro-imidazo[4,5-c]quinolin-2-one]
[1]
  IC50: > 30 µM
[2]; human microsomes
  CLint (human): < 10 μl/min/mg protein
[3]
  CLint (mouse): 103 μl/min/mg protein
[4]; FaSSiF, pH 6.5
  Solubility FaSSiF, pH 6.5: 216 μg/ml
[4]; FeSSiF, pH 5.0
  Solubility FeSSiF, pH 5.0: ~800 μg/ml
[4]; PBS, pH 7.4
  Solubility PBS, pH 7.4: ~100 μg/ml

## COc1cc2ncc3c(c2cc1-c1cn(C)nc1C)n(-c1c(F)cncc1OC)c(=O)n3C (single isomer, unassigned) [Compound 1, 8-(1,3-Dimethyl-1H-pyrazol-4-yl)-1-(Sa)-(3-fluoro-5-methoxy-pyridin-4-yl)-7-methoxy-3-methyl-1,3-dihydro-imidazo[4,5-c]quinolin-2-one]
[1]; Homo sapiens
  IC50: > 30 µM
[2]
  microsomal CLint: < 10 µL/min/mg
[3]
  CLint (mouse): 22 μl/min/mg protein
[4]; [5]
  solubility: 242 µg/mL (≈ 540 µM)
[4]; [6]
  solubility: 731 µg/mL (≈ 1630 µM)
[4]; [7]
  solubility: ~100 µg/mL (≈ 223 µM)

## COc1cc2ncc3c(c2cc1-c1cn(C)nc1C)n(-c1c(F)cncc1OC)c(=O)n3C [Compound Y, 8-(1,3-dimethyl-1H-pyrazol-4-yl)-1-(3-fluoro-5-methoxypyridin-4-yl)-7-methoxy-3-methyl-1,3-dihydroimidazo[4,5-c]quinolin-2-one, reference compound]
[1]; Homo sapiens
  IC50: > 30 µM
[2]
  microsomal CLint: 19 µL/min/mg
[3]; mouse, liver microsomes, pH 7.4, mouse microsomes
  microsomal CLint: 61 µL/min/mg
[4]; [5]
  solubility: 52 µg/mL (≈ 116 µM)
[4]; [6]
  solubility: 201 µg/mL (≈ 448 µM)
[4]; [7]
  solubility: 19 µg/mL (≈ 42.4 µM)
